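These data come from cells grown in 96-well plates and exposed to compound for 48 hours at five concentrations. GI50 = concentration required for 50% inhibition of growth.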 Active and inactive are the calls of the source. No stated cut-off is given here; in the data, active = GI50 up to about 1.1 µM and inactive = higher.
Tests used:
Assay in all cases: NCI anticancer screen, dose series, 48 h
MOLT-4 = system: MOLT-4
HCT-15 = system: HCT-15
EKVX = system: EKVX
BT-549 = system: BT-549
TK-10 = system: TK-10
Malme-3M = system: Malme-3M
OVCAR-3 = system: OVCAR-3
SNB-19 = system: SNB-19

| SMILES | GI50 (MOLT-4) | GI50 (HCT-15) [µM] | GI50 (EKVX) | GI50 (BT-549) | GI50 (TK-10) | GI50 (Malme-3M) | GI50 (OVCAR-3) | GI50 (SNB-19) |
| --- | --- | --- | --- | --- | --- | --- | --- | --- |
| C=C1C(C)C2C(Cc3ccccc3)NC(=O)C23C(OC(C)=O)C=CC(C)(O)C(=O)C(C)C/C=C/C3C1O (stereo not drawn) | 15.1 µM (inactive) | 5.55 |  |  |  |  |  |  |
| C=C1C(=O)O[C@H]2/C=C(/C)C3=CC(=O)[C@@](C)(C[C@@H](OC(=O)/C(C)=C\C)C12)O3 (stereo partly drawn) |  |  | 1.29 µM (inactive) | 1.21 µM (inactive) | 0.649 µM (active) | 0.387 µM (active) | 0.769 µM (active) | 13.2 µM (inactive) |
